Assay results taken from PMC6272775, “Three New Pigment Protein Tyrosine Phosphatases Inhibitors from the Insect Parasite Fungus Cordyceps gracilioides: Terreusinone A, Pinophilin C and Cryptosporioptide A” (Molecules, 2015).

Legend:
Type in all cases: biochemical
LAR = molecular target: T1, LAR (Homo sapiens, UniProt P10586); assay: PTP assay with pNPP as substrate, LAR; conditions: GST-ΔLAR PTP activity domain, 37 °C, pH 5.5
T1 construct: fusion proteins which only carry the PTP activity domain were expressed in Escherichia coli DH5α; GST (N); made in house; host or cells: Escherichia coli DH5α
T1 sequence (P10586 1352-1607 limits assumed): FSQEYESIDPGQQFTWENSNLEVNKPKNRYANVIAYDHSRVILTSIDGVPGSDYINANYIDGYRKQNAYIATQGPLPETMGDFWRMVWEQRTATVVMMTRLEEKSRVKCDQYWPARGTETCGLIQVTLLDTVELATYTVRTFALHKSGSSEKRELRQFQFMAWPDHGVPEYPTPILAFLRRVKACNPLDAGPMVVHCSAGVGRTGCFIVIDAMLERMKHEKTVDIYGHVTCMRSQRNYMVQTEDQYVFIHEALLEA
Excerpt: (§1) Protein tyrosine phosphatases (PTPs) constitute a large family of signaling enzymes that control the cellular levels of protein tyrosine phosphorylation. Several “classical” PTPs are attractive therapeutic targets, including PTP1B for obesity and Type II diabetes, SHP1, and SHP2 and CDC25B for cancer. GST-ΔPTP1B, GST-ΔSHP2, GST-ΔSHP1, GST-ΔLAR and GST-ΔCDC25B fusion proteins which only carry the PTP activity domain were expressed in Escherichia coli DH5α and affinity purified with glutathione Sepharose (Amersham Biosciences, Piscataway, NJ, USA). p-Nitrophenyl phosphate (pNPP) was used in the enzymatic reactions to determine the intrinsic catalytic activities of the PTPs. All assays using pNPP as the substrate were performed in a buffered reaction medium containing 10 mM of sodium acetate (NaAc), 1 mM of ethylenediaminetetraacetic acid and 1 mM of dithiothreitol at 37 °C, pH 5.5. Sodium orthovanadate was used as the positive control. Every experiment was performed in triplicate. The inhibitory activity measurements of PTPs were performed with different concentrations (0, 2.5, 5, 10, 20, 40 µg mL^−1) of inhibitor and 20 µg mL^−1 of PTPs. The reaction mixture was incubated at 37 °C for 15 min and the catalytic activity was detected by monitoring the absorbance at 405 nm immediately after adding 12.5 mM of pNPP. IC50 (the concentration of an inhibitor that is required for 50% inhibition of an enzyme) data were derived from the experimental results.

SHP2 = molecular target: T2, SHP2 (Homo sapiens, UniProt Q06124); assay: PTP assay with pNPP as substrate, SHP2; conditions: GST-ΔSHP2 PTP activity domain, 37 °C, pH 5.5
T2 construct: fusion proteins which only carry the PTP activity domain were expressed in Escherichia coli DH5α; GST (N); made in house; host or cells: Escherichia coli DH5α
T2 sequence (Q06124 247-517 limits assumed): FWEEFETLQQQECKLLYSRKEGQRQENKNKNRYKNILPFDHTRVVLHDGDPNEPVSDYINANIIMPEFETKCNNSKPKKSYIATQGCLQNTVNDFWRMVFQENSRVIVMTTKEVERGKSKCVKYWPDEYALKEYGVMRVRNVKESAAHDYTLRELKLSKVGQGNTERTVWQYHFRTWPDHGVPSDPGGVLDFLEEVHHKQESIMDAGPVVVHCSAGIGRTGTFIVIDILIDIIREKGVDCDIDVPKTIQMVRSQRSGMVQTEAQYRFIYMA
Excerpt: as §1

CDC25B = molecular target: T3, CDC25B (Homo sapiens, UniProt P30305); assay: PTP assay with pNPP as substrate, CDC25B; conditions: GST-ΔCDC25B PTP activity domain, 37 °C, pH 5.5
T3 construct: fusion proteins which only carry the PTP activity domain were expressed in Escherichia coli DH5α; GST (N); made in house; host or cells: Escherichia coli DH5α
T3 sequence (P30305 431-538 limits assumed): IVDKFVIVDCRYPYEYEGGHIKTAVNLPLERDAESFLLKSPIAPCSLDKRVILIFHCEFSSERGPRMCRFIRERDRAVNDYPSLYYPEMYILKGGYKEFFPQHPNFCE
Excerpt: as §1

PTP1B = molecular target: T4, PTP1B (Homo sapiens, UniProt P18031); assay: PTP assay with pNPP as substrate, PTP1B; conditions: GST-ΔPTP1B PTP activity domain, 37 °C, pH 5.5
T4 construct: fusion proteins which only carry the PTP activity domain were expressed in Escherichia coli DH5α; GST (N); made in house; host or cells: Escherichia coli DH5α
T4 sequence (P18031 3-277 limits assumed): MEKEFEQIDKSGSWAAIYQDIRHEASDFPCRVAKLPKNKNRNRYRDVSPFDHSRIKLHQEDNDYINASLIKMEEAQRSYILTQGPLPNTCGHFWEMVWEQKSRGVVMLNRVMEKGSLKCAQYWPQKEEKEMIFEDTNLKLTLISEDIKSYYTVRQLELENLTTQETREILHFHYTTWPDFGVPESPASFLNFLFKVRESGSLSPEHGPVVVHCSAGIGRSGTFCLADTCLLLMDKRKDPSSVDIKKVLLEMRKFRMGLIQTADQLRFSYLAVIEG
Excerpt: Protein tyrosine phosphatases (PTPs) constitute a large family of signaling enzymes that control the cellular levels of protein tyrosine phosphorylation. Several “classical” PTPs are attractive therapeutic targets, including PTP1B for obesity and Type II diabetes, SHP1, and SHP2 and CDC25B for cancer. GST-ΔPTP1B, GST-ΔSHP2, GST-ΔSHP1, GST-ΔLAR and GST-ΔCDC25B fusion proteins which only carry the PTP activity domain were expressed in Escherichia coli DH5α and affinity purified with glutathione Sepharose (Amersham Biosciences, Piscataway, NJ, USA). p-Nitrophenyl phosphate (pNPP) was used in the enzymatic reactions to determine the intrinsic catalytic activities of the PTPs. All assays using pNPP as the substrate were performed in a buffered reaction medium containing 10 mM of sodium acetate (NaAc), 1 mM of ethylenediaminetetraacetic acid and 1 mM of dithiothreitol at 37 °C, pH 5.5. […] Every experiment was performed in triplicate. The inhibitory activity measurements of PTPs were performed with different concentrations (0, 2.5, 5, 10, 20, 40 µg mL^−1) of inhibitor and 20 µg mL^−1 of PTPs. The reaction mixture was incubated at 37 °C for 15 min and the catalytic activity was detected by monitoring the absorbance at 405 nm immediately after adding 12.5 mM of pNPP.

SHP1 = molecular target: T5, SHP1 (Homo sapiens, UniProt P29350); assay: PTP assay with pNPP as substrate, SHP1; conditions: GST-ΔSHP1 PTP activity domain, 37 °C, pH 5.5
T5 construct: fusion proteins which only carry the PTP activity domain were expressed in Escherichia coli DH5α; GST (N); made in house; host or cells: Escherichia coli DH5α
T5 sequence (P29350 244-515 limits assumed): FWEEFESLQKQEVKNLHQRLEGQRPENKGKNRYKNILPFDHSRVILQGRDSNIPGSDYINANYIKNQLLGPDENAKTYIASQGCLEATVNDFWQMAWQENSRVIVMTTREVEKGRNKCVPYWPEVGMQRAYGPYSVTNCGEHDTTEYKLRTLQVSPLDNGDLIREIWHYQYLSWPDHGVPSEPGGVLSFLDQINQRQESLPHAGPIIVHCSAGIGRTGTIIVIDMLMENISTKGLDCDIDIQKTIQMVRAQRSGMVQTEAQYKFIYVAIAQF
Excerpt: as §1

Row | IC50 (LAR) [µM] | IC50 (SHP2) [µM] | IC50 (CDC25B) [µM] | IC50 (PTP1B) [µM] | IC50 (SHP1) [µM] | IC50 Values SHP2 (SHP2) [µg/mL] | IC50 Values SHP1 (SHP1) [µg/mL] | Structure (SMILES)
1 | > 119 | 13.5 | 18 | 17.3 | 11.6 | – | – | CC1(O)C2OC(=O)CCC(=O)NC3(Oc4ccc(C(=O)O)c(O)c4C(=O)C13)C2(C)O (single isomer, unassigned; (+)) [Compound 3]
2 | 29.6 | > 139 | 11.4 | 34.9 | 15.6 | – | – | COC(c1cc2c([nH]1)C(=O)c1cc(C(OC)C(C)C)[nH]c1C2=O)C(C)C (centres unmarked) [Compound 1, 2,6-bis(1-methoxy-2-methylpropyl) pyrrolo[2,3-f]indole-4,8(1H,5H)-dione]
3 | 11.3 | 19.2 | 10.8 | 16.3 | 8.17 | – | – | Cc1cc(O)cc(O)c1C(=O)O[C@]1(C)C(=O)C=C2C=C(/C=C/C(=O)O)OC[C@H]2[C@@H]1O [Compound 2, (E)-3-((7S,8S,8aS)-7-((2,4-dihydroxy-6-methylbenzoyl)oxy)-8-hydroxyl-7-methyl-6-oxo-6,7,8,8a-tetra-hydro-1H-isochromen-3-yl)acrylic acid]
4 | – | – | – | – | – | 122.2 | 4.3 | [Na+].[Na+].[Na+].[O]=[V]([O-])([O-])[O-] [Sodium orthovanadate, reference compound]
